Measurements taken from US9675596B2, “1,2,4-thiazolidin-3-one derivatives and their use in the treatment of cancer” (Baltic Bio AB, priority 2009, dated 2017).

Columns and labels:
[1] = test system: PC-3 cells; test: Cell proliferation assay (BrdU incorporation); assay type: cell-based; conditions: Homo sapiens, serum-free, 0.6 μM, relative to vehicle control (1 unit), 18 h + 6 h BrdU, read-out: Units of BrdU incorporation
Description: PC-3 cancer cell lines were propagated in D-MEM (Gibco 21885) supplemented with 10% Foetal calf serum. 15000 cells per well were seeded in 96 well plates and incubated overnight. The culture media was changed to serum-free D-MEM for 24 h. The culture media was then changed to serum free D-MEM containing either 0.2% DMSO as vehicle control or 0.3, 0.6, 1.2 or 2.5 μM (or 1.25, 2.5, 5, 10 μM (as indicated in Table 1 below)) of the selected compounds of Example 1 to Example 8 in 0.2% DMSO in quadruplicate. After 18 h incubation, BrdU was added according to manufacturer's recommendations. After 6 h incubation in the presence of BrdU, the culture media was removed and BrdU incorporation was measured using “Cell Proliferation ELISA, BrdU colorimetric” Roche (11647229001) according to manufacturer's recommendations.
Proliferation rate of PC-3 cells are reduced by relevant concentrations of the test compounds as measured by BrdU incorporation.

[2] = test system: AMPK; test: Activation of AMPK: Western blot of AMPK (Thr172) phosphorylation in PC3 cells; assay type: cell-based, human; conditions: PC3 cells starved 24 h serum-free; 0.3, 0.6, 1.2 and 2.5 μM for 4 h
Description: After starvation of PC3 cells in serum-free medium for 24 h, 0.3, 0.6, 1.2 and 2.5 μM of the compound of Example 1 or the compound of Example 2c was added and incubated for an additional 4 h. The Figure provides representative immunoblots of AMPK phosphorylation by the compound of Example 1 or the compound of Example 2c.
After starvation of PC3 cells in serum-free medium for 16 h, 1 and 5 μM of the selected compounds were added and incubated for an additional 4 h. The Figure provides representative immunoblots of the total level of AMPK (Pan-AMPK) and the level of AMPK and acetyl-CoA carboxylase phosphorylation by the selected compounds of the examples. The selected compounds of the examples stimulate AMPK phosphorylation in PC3 cells and induce the phosphorylation of acetyl-CoA carboxylase.
Selected compounds of Examples 1, 4 to 6 and 8 were prepared. A stock solution of […] was prepared by dissolving the compound in 100% DMSO.
Human PC3 cells were purchased from LGC Promochem-ATCC (ATCC catalog no CRL-1435). […]
PC3 cells were lysed in buffer (100 mM TRIS pH 6.8, 2% w/v Sodium dodecylsulfate (SDS), 10 mM NaF, 10 mM 3-glycerophosphate, 1 mM Na Vanadate). […] Protein concentrations of the lysates were measured using a BCA protein assay kit (Pierce #23225). […]

[3] = target: T1, PP2C-α1 (Homo sapiens, UniProt P35813); test: Dephosphorylation of PP2C assay (PP2C-α1 mediated dephosphorylation of AMPK trimer); assay type: biochemical; conditions: 2.5, 5 and 10 μM; AMPK trimer α1/β1/γ1, 20 min, 30° C.
T1 construct: purchased Abcam (PP2C-α1); Invitrogen (AMPK trimer) Ab51205; PV4672
T1 sequence (P35813 1-382): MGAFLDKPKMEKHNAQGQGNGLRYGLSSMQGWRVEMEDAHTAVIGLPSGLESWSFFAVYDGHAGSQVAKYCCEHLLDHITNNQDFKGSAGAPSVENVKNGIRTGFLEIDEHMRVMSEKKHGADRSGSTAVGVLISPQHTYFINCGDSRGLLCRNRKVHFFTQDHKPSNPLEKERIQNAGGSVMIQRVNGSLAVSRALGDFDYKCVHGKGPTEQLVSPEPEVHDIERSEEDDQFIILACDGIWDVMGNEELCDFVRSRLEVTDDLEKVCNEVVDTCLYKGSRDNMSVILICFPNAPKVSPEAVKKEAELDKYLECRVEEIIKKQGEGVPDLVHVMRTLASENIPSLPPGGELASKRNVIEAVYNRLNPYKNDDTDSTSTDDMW
Description: The compounds were tested in the assay at concentrations of 2.5, 5 and 10 μM (as depicted in the figure).
Hyperphosphosporylated AMPK trimer 10 (ng) (α1/β1/γ1) from Invitrogen (PV4672) was incubated in a buffer containing: 40 mM Hepes pH 7.45, 2 mM MnCl2, 0.5 mM DTT and 0.125 ng recombinant PP2C-α1 (Abcam Ab51205) in the presence or absence of potential inhibitors of the interaction/enzymatic reaction in at total volume of 10 μL for 20 minutes in 30° C. The reaction was terminated by addition of 40 μL stop solution containing 1% Bovine Serum Albumin (BSA), 10 mM EDTA and anti Phospho-AMPKα (Thr172) Antibody (cell signaling #2531) at a dilution of 1/1000. The samples were transferred to glutathione coated 96 well plated (Pierce #15140) and incubated O/N at +4° C. The plate was washed 3×200 μL in PBS/0.05% Triton X-100. The plate was incubated with PBS/1% BSA and horse radish peroxidase conjugated goat-anti rabbit antibody (Jackson immunoresearch Laboratories Inc. #111-035-003) at a dilution of 1/10 000 for 2 h in room temperature. The plate was washed 3×200 μL in PBS/0.05% Triton X-100. The assay was developed by addition of 100 μL Liquid Substrate System for ELISA (Sigma, T0440) for 5-30 min. The developing reaction was terminated by addition of 25 μL […]. Absorbance was measured at 450 nm, where absorbance correlates to amount p-T172 AMPK.

SMILES	activity at 0.6 µM [1] [%]	AMPK phosphorylation (immunoblot, FIG. 1) [2]	PP2C-α1 mediated dephosphorylation of AMPK (FIG. 3) [3]
O=c1[nH]s/c(=N\c2ccc(Cl)c(Cl)c2)n1Cc1cccc(C(F)(F)F)c1 [Example 1, 5-(3,4-dichlorophenyl)imino-4-[[3-(trifluoromethyl)phenyl]methyl]-1,2,4-thiadiazolidin-3-one]	39	stimulates AMPK phosphorylation	reduce PP2C-α1 mediated dephosphorylation of AMPK
O=c1[nH]s/c(=N\c2ccc(Cl)c(Cl)c2)n1Cc1ccc(F)c(F)c1 [Example 2c, 5-(3,4-dichlorophenyl)imino-4-[(3,4-difluorophenyl)methyl]-1,2,4-thiadiazolidin-3-one]	34	stimulates AMPK phosphorylation	reduce PP2C-α1 mediated dephosphorylation of AMPK
